Experimental data reported in ChEMBL document CHEMBL1122577, “Cardiac glycosides. 1. A systematic study of digitoxigenin D-glycosides” (J Med Chem, 1984).

test: Inhibitory activity against Hog kidney Na+, K+ -Dependent ATPase; parameters: species or system Sus scrofa; details: read-out: I50

Structure (SMILES)	IC50 [nM]
C[C@]12CC[C@H](O[C@@H]3O[C@@H](CO)[C@H](O)[C@H](O)[C@@H]3O)CC1CC[C@@H]1[C@@H]2CC[C@]2(C)[C@@H](C3=CC(=O)OC3)CC[C@@]12O (stereo partly drawn)	64.5
C[C@]12CC[C@H](O[C@@H]3O[C@@H](CO)[C@@H](O)[C@H](O)[C@@H]3O)CC1CC[C@@H]1[C@@H]2CC[C@]2(C)[C@@H](C3=CC(=O)OC3)CC[C@@]12O (stereo partly drawn)	11.7
C[C@@H]1O[C@@H](O[C@H]2CC[C@@]3(C)[C@@H](CC[C@@H]4[C@@H]3CC[C@]3(C)[C@@H](C5=CC(=O)OC5)CC[C@@]43O)C2)C[C@@H]2OC(C)(C)O[C@H]12	41.8
C[C@@H]1O[C@@H](O[C@H]2CC[C@@]3(C)[C@@H](CC[C@@H]4[C@@H]3CC[C@]3(C)[C@@H](C5=CC(=O)OC5)CC[C@@]43O)C2)C[C@H](O)[C@@H]1O	7.04
C[C@]12CC[C@H](O[C@H]3C[C@H](O)[C@H](O)[C@H](CO)O3)C[C@@H]1CC[C@@H]1[C@@H]2CC[C@]2(C)[C@@H](C3=CC(=O)OC3)CC[C@@]12O	10.7
C[C@]12CC[C@H](O[C@@H]3C[C@@H](O)[C@H](O)[C@H](CO)O3)C[C@@H]1CC[C@@H]1[C@@H]2CC[C@]2(C)[C@@H](C3=CC(=O)OC3)CC[C@@]12O	28.2
C[C@]12CC[C@H](O[C@@H]3C[C@H](O)[C@H](O)[C@H](CO)O3)C[C@@H]1CC[C@@H]1[C@@H]2CC[C@]2(C)[C@@H](C3=CC(=O)OC3)CC[C@@]12O	93.3
C[C@]12CC[C@H](O)C[C@H]1CC[C@@H]1[C@@H]2CC[C@]2(C)[C@@H](C3=CC(=O)OC3)CC[C@]12O [DIGITOXIGENIN]	117
